Experimental data reported in patent US20260207565A1, “COMPOUNDS THAT INHIBIT PKMYT1” (Exelixis, Inc., priority 2022, published 2026).

Assays:
PKMYT1 = molecular target: T1, PKMYT1 (Homo sapiens, UniProt Q99640); assay: ADP-Glo PKMYT1 ATP-depletion assay; settings: 50 nM PKMYT1, 13.3 nM CDK1, 88 μM ATP, 120 minutes at RT, read-out: Biochemical IC50
T1 construct: PKMYT1 (93 kD, full length, N-terminal GST tag from Signal Chem); GST (N); purchased Signal Chem
T1 sequence (Q99640 1-499): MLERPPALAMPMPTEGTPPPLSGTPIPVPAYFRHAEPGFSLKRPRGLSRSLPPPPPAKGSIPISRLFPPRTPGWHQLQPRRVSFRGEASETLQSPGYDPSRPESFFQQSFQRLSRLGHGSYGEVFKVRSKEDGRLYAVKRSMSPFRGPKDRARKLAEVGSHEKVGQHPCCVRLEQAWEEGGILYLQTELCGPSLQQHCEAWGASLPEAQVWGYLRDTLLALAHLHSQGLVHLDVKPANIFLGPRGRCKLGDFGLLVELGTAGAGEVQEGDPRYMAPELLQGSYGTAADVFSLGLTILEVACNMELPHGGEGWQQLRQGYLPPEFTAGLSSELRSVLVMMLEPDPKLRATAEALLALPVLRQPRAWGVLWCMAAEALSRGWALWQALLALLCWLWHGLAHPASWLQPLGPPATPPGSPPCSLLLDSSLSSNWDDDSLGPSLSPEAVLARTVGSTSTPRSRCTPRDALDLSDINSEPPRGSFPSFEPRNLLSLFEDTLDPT
Method: (§1) Biochemical IC50 values were determined via ADP-Glo™ assay. Cellular IC50 values were determined via AlphaLISA assay.
ADP-Glo™ PKMYT1 ATP-depletion assay. The activity of PKMYT1 is measured using a luciferase-luciferin based ATP detection reaction to quantify ATP depletion resulting from kinase-catalyzed phosphoryl transfer to CDK1 or autophosphorylation of PKMYT1. The ADP generated as a byproduct of the reaction is converted to ATP and used to drive a luciferase reaction. Test compounds were dissolved in DMSO and dispensed into Corning 3824 384-well plates prior to the experiment such that the final DMSO concentration was <10%. To the compounds was added 3 μL of PKMYT1 (93 kD, full length, N-terminal GST tag from Signal Chem). The reaction was started by the addition of 2 μL of CDK1 (58 kDa, full length, N-terminal GST tag from Signal Chem) and ATP in assay buffer (50 mM Hepes, 40 mM NaCl, 10 mM MgCl2, 1 mM DTT, 0.1 mg/mL BSA, 2.5 mM MnCl2). Final assay concentrations were 50 nM PKMYT1, 13.3 nM CDK1, and 88 μM ATP. Plates were centrifuged for 1 minute at 1000 RPM and incubated at RT for 120 minutes. After the incubation period, ADP-Glo™ reagent was added and the plates were incubated for another 40 minutes before finally adding the kinase detection reagent, 30 minutes after the addition, plates were placed on a PHERAstar® plate reader and read using the Luminescence Protocol, integration time at 0.5 seconds.

[1] = system: phosphorylation of CDK1 at Thr14 in HCC1806 cells; assay: Cell lysate AlphaLISA assay measuring inhibition of phosphorylation of CDK1 Thr14; type: cell-based; settings: Homo sapiens, HCC1806, 4 h, compounds incubated 4 hours, AlphaLISA SureFire Ultra CDK1 Thr14, read-out: Cellular IC50
Method: as §1
Cell lysate AlphaLISA® assay measuring inhibition of phosphorvlation of CDK1 Thr14. Inhibition of phosphorylation of CDK1 at Thr14 was determined using AlphaLISAn SureFire® Ultra™ Kit from Perkin Elmer (ALSU-PCDK1-A10K). HCC1806 cells were seeded at 2K cells per well (50 μl/well) in 384-well plates (Corning 3570) and stored overnight at 37° C. and 5% CO2. The following day, the compounds dissolved in DMSO were introduced to the cells and incubated for 4 hours at 37° C. and 5% CO2. The cells were then washed with PBS using Blue® Washer and 10 μl of lysis buffer containing protease inhibitor was added. The plate was placed on an orbital shaker (at 4° C.) for 30 minutes and stored overnight at −80° C. for complete lysing. The next day, the plates were thawed at room temperature for at least 30 min. Reagents were prepared in a dimmed light setting (<100 lumens). The assay was run by first adding 5 μl of the acceptor mix (reaction buffer 1: reaction buffer 2:activation buffer:acceptor beads 47:47:4:2), covering the plate with foil, shaking for 2 minutes, and incubating at RT for 60 minutes. The donor mix (dilution buffer:donor beads 47:3) was then added at 5 μl per well, placed on the shaker for 2 minutes and incubated at RT for 60 minutes before reading the plates on a PHERAstar® plate reader. The results were normalized to DMSO (0% Inhibition) and 3 μM of reference compound.

IC50 (PKMYT1) | IC50 [1] | Structure (SMILES)
< 50 nM | < 50 nM | CCn1cc(-c2cn[nH]c2)c2c(-c3c(C)ccc(O)c3C)cc(C(N)=O)nc21 (single isomer, unassigned) [Compound 69, (P)-1-Ethyl-4-(3-hydroxy-2,6-dimethylphenyl)-3-(1H-pyrazol-4-yl)-1H-pyrrolo[2,3-b]pyridine-6-carboxamide]
< 50 nM | < 50 nM | Cc1ccc(O)c(C)c1-c1c(N)c(C(N)=O)nc2c1ncn2C1CC1 (single isomer, unassigned) [Compound 77, (P)-6-amino-3-cyclopropyl-7-(3-hydroxy-2,6-dimethylphenyl)-3H-imidazo[4,5-b]pyridine-5-carboxamide]
< 50 nM | < 50 nM | CCn1cc(C#N)c2c(-c3c(C)ccc(O)c3C)cc(C(N)=O)nc21 (single isomer, unassigned) [Compound 79]
< 50 nM | < 50 nM | CCn1cc(C#N)c2c(-c3ccc(C)c(O)c3C)c(N)c(C(N)=O)nc21 (single isomer, unassigned) [Compound 82, (M)-5-amino-3-cyano-1-ethyl-4-(3-hydroxy-2,4-dimethylphenyl)-1H-pyrrolo[2,3-b]pyridine-6-carboxamide]
< 50 nM | < 50 nM | Cc1ccc(O)c(C)c1-c1c(N)c(C(N)=O)nc2c1ncn2C(C)C (single isomer, unassigned) [Compound 83, (P)-6-amino-7-(3-hydroxy-2,6-dimethylphenyl)-3-isopropyl-3H-imidazo[4,5-b]pyridine-5-carboxamide]
< 50 nM | < 50 nM | Cc1ccc(O)c(C)c1-c1c(N)c(C(N)=O)nc2c1nc(C)n2C(C)C (single isomer, unassigned) [Compound 84, (P)-6-amino-7-(3-hydroxy-2,6-dimethylphenyl)-3-isopropyl-2-methyl-3H-imidazo[4,5-b]pyridine-5-carboxamide]
< 50 nM | 50 to 500 nM | Cc1ccc(O)c(C)c1-c1c(N)c(C(N)=O)nc2c1ncn2C [Compound 1, 6-Amino-7-(3-hydroxy-2,6-dimethylphenyl)-3-methyl-3H-imidazo[4,5-b]pyridine-5-carboxamide]
< 50 nM | 50 to 500 nM | Cn1cc(C#N)c2c(-c3cccc(O)c3)c(N)c(C(N)=O)nc21 [Compound 7, 5-Amino-3-cyano-4-(3-hydroxyphenyl)-1-methyl-1H-pyrrolo[2,3-b]pyridine-6-carboxamide]
< 50 nM | 50 to 500 nM | Cc1c(F)cncc1-c1c(N)c(C(N)=O)nc2c1c(C#N)cn2C [Compound 8, 5-Amino-3-cyano-4-(5-fluoro-4-methylpyridin-3-yl)-1-methyl-1H-pyrrolo[2,3-b]pyridine-6-carboxamide]
< 50 nM | 50 to 500 nM | Cc1c(O)cccc1-c1c(N)c(C(N)=O)nc2c1c(C#N)c(C)n2C [Compound 9, 5-amino-3-cyano-4-(3-hydroxy-2-methylphenyl)-1,2-dimethyl-1H-pyrrolo[2,3-b]pyridine-6-carboxamide]
< 50 nM | 50 to 500 nM | Cc1c(Cl)cncc1-c1c(N)c(C(N)=O)nc2c1c(C#N)c(C)n2C [Compound 12]
< 50 nM | < 50 nM | Cc1ccc(O)c(C)c1-c1c(N)c(C(N)=O)nc2c1c(C#N)cn2C [Compound 13]
< 50 nM | < 50 nM | Cc1c(O)cccc1-c1c(N)c(C(N)=O)nc2c1c(C#N)c(C)n2CC(F)(F)F [Compound 14]
< 50 nM | 500 to 1000 nM | Cc1ccc(O)c(C)c1-c1c(N)c(C(N)=O)cc2c1nc(C)n2C [Compound 15, 5-amino-4-(3-hydroxy-2,6-dimethylphenyl)-1,2-dimethyl-1H-benzo[d]imidazole-6-carboxamide]
1000 to 5000 nM | ≥ 5000 nM | Cc1ccc(O)c(C)c1-c1cc(C(N)=O)nc2cn[nH]c12 [Compound 16, 7-(3-hydroxy-2,6-dimethylphenyl)-1H-pyrazolo[4,3-b]pyridine-5-carboxamide]
